Data as given in patent US20250230155A1 (Vanderbilt University, priority 2021, published 2025).

Biological target: T1, human mAChR M4 (Homo sapiens, UniProt P08173)
T1 construct: expressed in transfected cells
T1 sequence (P08173 1-479): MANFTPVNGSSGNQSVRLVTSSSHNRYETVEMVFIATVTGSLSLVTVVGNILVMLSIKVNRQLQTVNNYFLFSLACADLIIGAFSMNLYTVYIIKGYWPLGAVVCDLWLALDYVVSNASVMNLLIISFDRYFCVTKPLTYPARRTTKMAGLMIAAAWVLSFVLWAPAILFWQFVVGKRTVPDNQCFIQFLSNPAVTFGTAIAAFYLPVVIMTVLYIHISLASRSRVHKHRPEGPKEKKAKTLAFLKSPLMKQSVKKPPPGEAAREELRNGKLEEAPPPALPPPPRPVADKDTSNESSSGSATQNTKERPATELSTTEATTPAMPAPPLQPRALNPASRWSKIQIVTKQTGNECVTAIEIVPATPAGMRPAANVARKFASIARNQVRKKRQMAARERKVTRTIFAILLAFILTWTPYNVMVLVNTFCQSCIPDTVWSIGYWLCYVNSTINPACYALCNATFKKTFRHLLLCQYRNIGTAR
Test: mAChR M4 cell-based functional assay (calcium mobilization, CHO-K1 hM4-Gqi5 cells)
Conditions: for Emax at 30 µM: CHO-K1, % ACh maximum at 30 μM, human M4; for EC50: positive allosteric modulator activity, increase in the EC20 acetylcholine response, CHO-K1 hM4-Gqi5 cells, read-out: Human M4 EC50; for Emax: CHO-K1
How it was run: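 Fluorescent calcium read-out (Fluo-4 AM, FDSS, 1 Hz) in hM4-Gqi5 CHO-K1 cells, 11-point 1:3 compound series. Agonism scored on compound addition, PAM activity as increase of the 144 s EC20 acetylcholine response, antagonism as decrease of the 230 s EC80 response; four-parameter logistic fits give EC50 and Emax.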

SMILES | Emax at 30 µM [%] | EC50 [nM] | Emax [%]
Cc1cc(C(=O)NC2(C#N)CC2)nnc1N1CCc2ncc(C(F)(F)F)cc2C1 [Example 523, N-(1-cyanocyclopropyl)-5-methyl-6-(3-(trifluoromethyl)-7,8-dihydro-1,6-naphthyridin-6(5H)-yl)pyridazine-3-carboxamide] | 109 | 74 | –
Cc1c(C#N)nnc(N2CCc3ncc(Oc4cc(F)ccc4F)cc3C2)c1C [Example 353, 6-(3-(2,5-difluorophenoxy)-7,8-dihydro-1,6-naphthyridin-6(5H)-yl)-4,5-dimethylpyridazine-3-carbonitrile] | 73 | 126 | –
Cc1ncc(CNC(=O)c2cnc(N3CCc4ncccc4C3)c(C)c2)s1 [compound 127, 6-(7,8-dihydro-5H-1,6-naphthyridin-6-yl)-5-methyl-N-[(2-methylthiazol-5-yl)methyl]pyridine-3-carboxamide] | 67 | 2620 | –
Cc1nc(Cl)c(C)c(N2Cc3cc(N)cnc3C(C)(C)C2)n1 [compound 219, 6-(6-chloro-2,5-dimethylpyrimidin-4-yl)-8,8-dimethyl-5,6,7,8-tetrahydro-1,6-naphthyridin-3-amine] | – | ≥ 10000 | 37
Cc1cc(C(=O)N2Cc3cccnc3C2)nnc1N1CCc2ncc(N3CCCn4nccc43)cc2C1 [Example 513, (5,7-dihydro-6H-pyrrolo[3,4-b]pyridin-6-yl)(6-(3-(6,7-dihydropyrazolo[1,5-a]pyrimidin-4(5H)-yl)-7,8-dihydro-1,6-naphthyridin-6(5H)-yl)-5-methylpyridazin-3-yl)methanone] | 90 | 51 | –
Cc1cc(C#N)cnc1N1CCc2ncc(-c3cnn(C)c3)cc2C1 [compound 104, 5-methyl-6-[3-(1-methylpyrazol-4-yl)-7,8-dihydro-5H-1,6-naphthyridin-6-yl]pyridine-3-carbonitrile] | 99 | 216 | –
Cc1cc(C#N)cnc1N1CCc2ncc(OCCOC3CCCC3)cc2C1 [Example 433, 6-(3-(2-(cyclopentyloxy)ethoxy)-7,8-dihydro-1,6-naphthyridin-6(5H)-yl)-5-methylnicotinonitrile] | 74 | 897 | –
Cc1nc(Cl)c(C)c(N2CCc3ncc(N4CCCn5nccc54)cc3C2)n1 [compound 243, 6-(6-chloro-2,5-dimethylpyrimidin-4-yl)-3-(6,7-dihydropyrazolo[1,5-a]pyrimidin-4(5H)-yl)-5,6,7,8-tetrahydro-1,6-naphthyridine] | 102 | 25 | –
Cc1cc(C(=O)N2CC(C)(F)C2)nnc1N1CCc2ncc(N3CCO[C@H](C)C3)cc2C1 [Example 573, (R)-(3-fluoro-3-methylazetidin-1-yl)(5-methyl-6-(3-(2-methylmorpholino)-7,8-dihydro-1,6-naphthyridin-6(5H)-yl)pyridazin-3-yl)methanone] | 89 | 100 | –
Cc1cc(C#N)cnc1N1CCc2ncc(-c3cnn(C4CCC4)c3)cc2C1 [compound 101, 6-[3-(1-cyclobutylpyrazol-4-yl)-7,8-dihydro-5H-1,6-naphthyridin-6-yl]-5-methyl-pyridine-3-carbonitrile] | 91 | 339 | –
Cc1c(C#N)nnc(N2CCc3ncc(-c4cnn(C(F)F)c4)cc3C2)c1C [Example 326, 6-(3-(1-(difluoromethyl)-1H-pyrazol-4-yl)-7,8-dihydro-1,6-naphthyridin-6(5H)-yl)-4,5-dimethylpyridazine-3-carbonitrile] | 68 | 611 | –
Cc1cc(C(=O)NC2CC2)cnc1N1CCc2ncccc2C1 [compound 64, N-cyclopropyl-6-(7,8-dihydro-5H-1,6-naphthyridin-6-yl)-5-methyl-pyridine-3-carboxamide] | 59 | ≥ 10000 | –
[2H]C1([2H])Cc2ncc(Nc3ccncc3F)cc2C([2H])([2H])N1c1nnc(C#N)cc1C [Example 606, 6-(3-((3-fluoropyridin-4-yl)amino)-7,8-dihydro-1,6-naphthyridin-6(5H)-yl-5,5,7,7-d4)-5-methylpyridazine-3-carbonitrile] | 90 | 10 | –
Cc1cc(C#N)nnc1N1CCc2ncc(Oc3cc(F)ccc3F)cc2C1 [Example 357, 6-(3-(2,5-difluorophenoxy)-7,8-dihydro-1,6-naphthyridin-6(5H)-yl)-5-methylpyridazine-3-carbonitrile] | 84 | 127 | –
Cc1c(C(=O)NCc2ccncc2)nnc(N2CCc3ncccc3C2)c1C [compound 135, 6-(7,8-dihydro-5H-1,6-naphthyridin-6-yl)-4,5-dimethyl-N-(4-pyridylmethyl)pyridazine-3-carboxamide] | 84 | 1800 | –
Cc1c(Cl)nc(C(F)(F)F)nc1N1CCc2ncc(C(F)(F)F)cc2C1 [compound 237, 6-(6-chloro-5-methyl-2-(trifluoromethyl)pyrimidin-4-yl)-3-(trifluoromethyl)-5,6,7,8-tetrahydro-1,6-naphthyridine] | 73 | 2960 | –
Cc1nc(Cl)c(C)c(N2CCc3ncc(-c4ccc(N(C)C)nc4)cc3C2)n1 [compound 220, 5-(6-(6-chloro-2,5-dimethylpyrimidin-4-yl)-5,6,7,8-tetrahydro-1,6-naphthyridin-3-yl)-N,N-dimethylpyridin-2-amine] | 82 | 518 | –
Cc1cc(C#N)cnc1N1CCc2ncc(-c3cc(F)cc(F)c3C)cc2C1 [Example 597, 6-(3-(3,5-difluoro-2-methylphenyl)-7,8-dihydro-1,6-naphthyridin-6(5H)-yl)-5-methylnicotinonitrile] | 69 | 2870 | –
FC(F)(F)c1cnc2c(c1)CN(c1nc(Cl)nc3c1CCCC3)CC2 [compound 264, 2-chloro-4-(3-(trifluoromethyl)-7,8-dihydro-1,6-naphthyridin-6(5H)-yl)-5,6,7,8-tetrahydroquinazoline] | 66 | 1620 | –
COCCOc1cnc2c(c1)CN(c1ncc(C#N)cc1C)CC2 [Example 434, 6-(3-(2-methoxyethoxy)-7,8-dihydro-1,6-naphthyridin-6(5H)-yl)-5-methylnicotinonitrile] | 102 | 958 | –
Cc1nc(C)c(C)c(N2CCc3ncc(-c4ccc(N5CCC(F)(F)C5)nc4)cc3C2)n1 [compound 228, 3-(6-(3,3-difluoropyrrolidin-1-yl)pyridin-3-yl)-6-(2,5,6-trimethylpyrimidin-4-yl)-5,6,7,8-tetrahydro-1,6-naphthyridine] | 66 | 890 | –
Cc1cc(C(=O)NC2CC(F)(F)C2)cnc1N1CCc2ncc(-c3cn(C)nc3C)cc2C1 [Example 476, N-(3,3-difluorocyclobutyl)-6-(3-(1,3-dimethyl-1H-pyrazol-4-yl)-7,8-dihydro-1,6-naphthyridin-6(5H)-yl)-5-methylnicotinamide] | 67 | 752 | –
Cc1c(C#N)nnc(N2CCc3ncc(-c4ccc(N(C)C)nc4)cc3C2)c1C [Example 312, 6-(3-(6-(dimethylamino)pyridin-3-yl)-7,8-dihydro-1,6-naphthyridin-6(5H)-yl)-4,5-dimethylpyridazine-3-carbonitrile] | 50 | 458 | –
[2H]C1([2H])Cc2ncc(Nc3ccccc3F)cc2C([2H])([2H])N1c1ncc(C#N)cc1C [Example 612] | 91 | 24 | –
Cc1c(C#N)nnc(N2CCc3ncc(Nc4nc(Cl)ncc4F)cc3C2)c1C [compound 81, 6-[3-[(2-chloro-5-fluoro-pyrimidin-4-yl)amino]-7,8-dihydro-5H-1,6-naphthyridin-6-yl]-4,5-dimethyl-pyridazine-3-carbonitrile] | 78 | 539 | –
Cc1cc(C#N)nnc1N1CCc2ncc(N3CCO[C@H](C)C3)cc2C1 [Example 397, (R)-5-methyl-6-(3-(2-methylmorpholino)-7,8-dihydro-1,6-naphthyridin-6(5H)-yl)pyridazine-3-carbonitrile] | 72 | 441 | –
Cc1c(C#N)nnc(N2CCc3ncc(-c4ccc(Cl)nc4)cc3C2)c1C [compound 56, 6-[3-(6-chloro-3-pyridyl)-7,8-dihydro-5H-1,6-naphthyridin-6-yl]-4,5-dimethyl-pyridazine-3-carbonitrile] | 53 | 364 | –
Cc1cc(C(=O)NCc2ccncc2)nnc1N1CCc2ncc(C(F)(F)F)cc2C1 [Example 493, 5-methyl-N-(pyridin-4-ylmethyl)-6-(3-(trifluoromethyl)-7,8-dihydro-1,6-naphthyridin-6(5H)-yl)pyridazine-3-carboxamide] | 112 | 37 | –
Cc1nc(C)c(C)c(N2CCc3ncc(Oc4cc(F)ccc4F)cc3C2)n1 [compound 263, 3-(2,5-difluorophenoxy)-6-(2,5,6-trimethylpyrimidin-4-yl)-5,6,7,8-tetrahydro-1,6-naphthyridine] | 90 | 145 | –
Cc1ccc2c(n1)CCN(c1nnc(C#N)cc1C)C2 [Example 605, 5-methyl-6-(2-methyl-7,8-dihydro-1,6-naphthyridin-6(5H)-yl)pyridazine-3-carbonitrile] | – | 1440 | 106
